Reference: patent publication US20090275653A1, “POLYMORPHIC FORMS OF LADOSTIGIL TARTRATE” (priority 2005, published 2009)

What was measured:
[1] = tested on: animal models of Alzheimer's disease; settings: background statement, literature; cited from earlier work
[2] = Hygroscopicity study: exposure to 0-100% relative humidity at room temperature (Karl Fischer, TGA, crystal form by XRD); format: physicochemical; parameters: TGA: unit not given here; settings: for Water content by Karl Fisher: 1 week (7 days)
Text: Form E was placed for 1 week under 0-100% relative humidity at room temperature. Table 1 summarizes the results:
Form F was placed for 14 days under 0-100% relative humidity at room temperature. Table 2 summarizes the results:
Form H was placed for 14 days under 0-100% relative humidity at room temperature. Table 3 summarizes the results:
Form J1 was placed for 9 days under 0-100% relative humidity at room temperature. Table 4 summarizes the results:
Table 5 summarizes the results:
X-Ray powder diffraction data were obtained by method known in the art using a SCINTAG powder X-Ray diffractometer model X'TRA equipped with a solid state detector. Copper radiation of 1.5418 Å was used. A round aluminum sample holder with round zero background quartz plate, with a cavity of 25(diameter)*0.5(depth) mm was used.
(§1) TGA analysis was performed using a Mettler M3 meter. The weight of the samples was about 10 mg. The samples were scanned at a rate of 10° C./min from 25° C. to 200° C. The oven was constantly purged with nitrogen gas at a flow rate of 40 ml/min. Standard 70 μl alumina crucibles covered by lids with 1 hole were used.
(§2) The water content of ladostigil tartrate was measured by methods known in the art, such Karl Fischer analysis.
Crystal form was determined after equilibration of ladostigil tartrate form A for 10 days at various relative humidities at room temperature.
Form A1 was exposed at various humidity conditions at room temperature for 13 days.
Ladostigil tartrate form A1 was exposed to various humidity conditions at room temperature for 14 days. TGA was performed, and the crystal form was analyzed.
A mixture of ladostigil tartrate form A1 and E, containing primarily form A1, was exposed at various humidity conditions at room temperature for 14 days.
Form E was placed for 7 days under 0-100% relative humidity at room temperature. Table 12 summarizes the results:
Form F was placed for 14 days under 0-100% relative humidity at room temperature. Table 14 summarizes the results:
Ladostigil tartrate Form H was exposed for 14 days under 0-100% relative humidity at room temperature. Table 15 summarizes the results:
Crystal ladostigil tartrate Form J1 was placed for 9 days under 0-100% relative humidity at room temperature.

[3] = Effect of micronization, pressing and grinding (XRD); format: physicochemical; settings: pressing 1 minute at 100 metric tons
Description: The effects of micronization, pressing (1 minute at 100 metric tons) and grinding were determined by XRD and the following results were obtained: […]

[4] = Effect of freezing (XRD); format: physicochemical; settings: freezer at about −25° C. for 3 months
Description: The effects of freezing was determined by XRD and the following results were obtained:
Form A1 was kept in a freezer at about −25° C. for 3 months. Form A1 transformed to Form A in freezer.

[5] = Water content (Karl Fischer) and loss on drying (TGA) of the form as obtained; format: physicochemical; settings: for Water content: by weight
Description: as §1, §2

[6] = Transformation of crystal form upon standing; format: physicochemical; settings: upon standing (a few hours)
Description: The wet material was determined to be polymorph C. Some of the samples contained polymorph C with low crystallinity. The wet material was dried at 55° C. under vacuum for 17 hours, giving polymorph E. The wet polymorph with low crystallinity was transformed to polymorph E with low crystallinity upon drying under the same conditions. Both polymorph E and polymorph E with low crystallinity were transformed to form A upon standing.
The wet material was dried at 80° C. under vacuum for 17 hours and polymorph E was formed.

[7] = 100% RH, 13 days, room temperature
[8] = 100% RH, 14 days, room temperature

Compound: C#CCN[C@@H]1CCc2ccc(OC(=O)N(C)CC)cc21 [Ladostigil, Ethyl-methyl-carbamic acid (R)-3-prop-2-ynylamino-indan-5-yl ester]
- Efficacy in animal models of Alzheimer's disease [1]: effective

Compound: carbamic acid, ethylmethyl-, (3R)-2,3-dihydro-3-(2-propynylamino)-1H-inden-5-yl ester, (2R,3R)-2,3-dihydroxybutanedioate (2:1) [Form A1, reference compound]
- KF (Karl Fischer analysis) ([2]; 0% RH, 13 days, room temperature): 0.3%
- KF (Karl Fischer analysis) ([2]; 20% RH, 13 days, room temperature): 0.3%
- KF (Karl Fischer analysis) ([2]; 40% RH, 13 days, room temperature): 0.3%
- KF (Karl Fischer analysis) ([2]; 60% RH, 13 days, room temperature): 0.3%
- TGA ([2]; 60% RH, 14 days, room temperature): 0.2
- KF (Karl Fischer analysis) ([2]; 80% RH, 13 days, room temperature): 0.3%
- TGA ([2]; 80% RH, 14 days, room temperature): 0.1
- KF (Karl Fischer analysis) [2, 7]: 0.5%
- Resulting form [2, 7]: partially transforms to form A
- Crystal Form (resulting form) [2, 8]: mixture of Form A and A1
- TGA [2, 8]: 0.1
- Hygroscopicity ([2]; conclusion in words): neither Form A nor Form A1 is hygroscopic
- Crystal form upon exposure to high relative humidity ([2]; high relative humidity, in words): transforms to form A
- Crystallinity after pressing [3]: lose some extent of crystallinity
- Crystal form after freezing [4]: Form A
- Weight loss / loss on drying by TGA [5]: 0.3%
- Water content [5]: about 0.3%

Compound: carbamic acid, ethylmethyl-, (3R)-2,3-dihydro-3-(2-propynylamino)-1H-inden-5-yl ester, (2R,3R)-2,3-dihydroxybutanedioate (2:1) [Form E]
- Water content by Karl Fisher ([2]; 0% RH, room temperature): 0.7%
- Relative humidity range in which the form is stable ([2]; 1 week, room temperature): 0-60 % RH
- Water content by Karl Fisher ([2]; 20% RH, room temperature): 0.7%
- Water content by Karl Fisher ([2]; 40% RH, room temperature): 1.5%
- Water content by Karl Fisher ([2]; 60% RH, room temperature): 1.8%
- Water content by Karl Fisher ([2]; 80% RH, room temperature): 0.5%
- Water content by Karl Fisher ([2]; 100% RH, room temperature): 0.5%
- Weight loss / loss on drying by TGA [5]: 0.7-2%
- Water content [5]: 0.7-2%
- Crystal form after standing ([6]; listed as Polymorph E): mixture of polymorphs A and A1
- Crystal form after standing ([6]; listed as polymorph E): form A
